# Results from ChEMBL document CHEMBL3886479, “1-H-pyrrolo[2,3-b]pyridine derivatives” (2016).
# Molecular target: T1, 3-phosphoinositide-dependent protein kinase 1 (Homo sapiens, UniProt O15530)
# T1 sequence (O15530 whole entry): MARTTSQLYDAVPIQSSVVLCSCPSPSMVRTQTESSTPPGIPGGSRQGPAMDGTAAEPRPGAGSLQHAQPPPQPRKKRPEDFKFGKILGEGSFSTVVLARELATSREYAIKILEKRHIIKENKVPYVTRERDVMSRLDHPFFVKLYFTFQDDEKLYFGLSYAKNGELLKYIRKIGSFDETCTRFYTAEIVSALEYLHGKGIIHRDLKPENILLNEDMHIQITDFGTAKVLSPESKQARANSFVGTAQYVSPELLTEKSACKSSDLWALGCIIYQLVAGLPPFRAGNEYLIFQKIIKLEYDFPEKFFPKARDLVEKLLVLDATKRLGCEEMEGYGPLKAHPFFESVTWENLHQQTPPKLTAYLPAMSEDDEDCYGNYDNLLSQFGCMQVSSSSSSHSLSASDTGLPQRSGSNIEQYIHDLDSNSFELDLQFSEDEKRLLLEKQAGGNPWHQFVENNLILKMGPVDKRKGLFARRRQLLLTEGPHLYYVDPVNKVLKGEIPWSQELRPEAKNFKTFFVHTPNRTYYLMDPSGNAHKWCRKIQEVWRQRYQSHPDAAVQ
# Experiment: Luminex Assay: The cellular assay for the determination of the PDK1 kinase activity is carried out as a Luminex assay in the 96-well format. PC3 cells are sown at 20,000 cells per well in 100 ul of medium (45% of […]/45% of Ham's F12/10% of FCS) and incubated on the following day for 30 min with a serial dilution of the test substance (7 concentrations) under serum-free conditions. The cells are subsequently lysed using 90 ul of lysis buffer (20 mM tris/HCl pH 8.0, 150 mM NaCl, 1% of NP40, 10% of glycerol, 1% of phosphatase inhibitor I, 1% of phosphatase inhibitor II, 0.1% of protease inhibitor cocktail III, 0.01% of benzonase) per well, and the lysates are separated off from insoluble cell constituents by means of centrifugation through a 96-well filter plate (0.65 um). The lysates are incubated overnight at 4° C. with shaking with Luminex beads to which an anti-total PKB antibody is coupled. The detection is carried out on the following day by addition of a phospho-T308-PKB antibody and a species-specific peroxidase-labelled secondary antibody.
# Format: cell-based
# Details: pc-3
compound,measurement,value
Cn1cc(-c2cnc3[nH]cc(-c4cc(N(CCC#N)c5ccccc5)nc(N)n4)c3c2)cn1,IC50,7.1 nM
